Assays:
Type in all cases: cell-based
[1] = system: HEK293 clonal cell line overexpressing APOL1 G1; experiment: APOL1 G1 HEK293 cell rescue assay (Example B3); details: Homo sapiens, HEK293, HEK293 clonal line overexpressing APOL1 G1; geometric mean of at least 2 runs; † = single run; ¥ = concentration at 50% rescue estimated (no sigmoidal curve)
In short: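 Rescue of cell death caused by APOL1 G1 overexpression was measured in a clonal HEK293 line. Compounds were tested in duplicate on one plate, and EC50s were geometric means across at least two runs on different days. Some values are estimated 50%-rescue concentrations where curve fitting failed.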

[2] = system: Trypanosoma brucei Lister 427 VSG221 with APOL1 G0 recombinant protein; experiment: APOL1 G0 trypanosome cell rescue assay (Example B5); details: Trypanosoma brucei, 20 h, read-out: APOL1 G0 Trypanosome Rescue EC50, Trypanosoma brucei Lister 427 VSG221 with APOL1 G0 recombinant protein, 20 hours, CellTiter-Glo; geometric mean of at least 2 assay runs; † = single assay run
In short: (§1)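 Recombinant APOL1 protein, dispensed from a 2 μg/mL stock, and 250 T. brucei per well were co-incubated with test compound (0.4% DMSO) for 20 h. Viability: CellTiter-Glo luminescence.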

[3] = system: Trypanosoma brucei Lister 427 VSG221 with APOL1 G1 recombinant protein; experiment: APOL1 G1 trypanosome cell rescue assay (Example B5); details: Trypanosoma brucei, 20 h, read-out: APOL1 G1 Trypanosome Rescue EC50, Trypanosoma brucei Lister 427 VSG221 with APOL1 G1 recombinant protein, 20 hours, CellTiter-Glo; geometric mean of at least 2 assay runs; † = single assay run
In short: as §1

[4] = system: Trypanosoma brucei Lister 427 VSG221 with APOL1 G2 recombinant protein; experiment: APOL1 G2 trypanosome cell rescue assay (Example B5); details: Trypanosoma brucei, 20 h, read-out: APOL1 G2 Trypanosome Rescue EC50, Trypanosoma brucei Lister 427 VSG221 with APOL1 G2 recombinant protein, 20 hours, CellTiter-Glo; geometric mean of at least 2 assay runs; † = single assay run
In short: as §1

| SMILES | EC50 [1] [µM] | EC50 [2] [µM] | EC50 [3] [µM] | EC50 [4] [µM] |
| --- | --- | --- | --- | --- |
| CNC(=O)c1ccc(OCCN2CCC3(CC2)C(=O)Nc2ccc(Cl)cc23)cc1F [Compound 229, 4-(2-{5-chloro-2-oxo-1,2-dihydrospiro[indole-3,4′-piperidin]-1′-yl}ethoxy)-2-fluoro-N-methylbenzamide] | 0.396 | 0.417 | 0.778 | 0.186 |
| CN(C)C(=O)c1ccc(OCCN2CCC3(CC2)C(=O)Nc2ccc(Cl)cc23)cc1F [Compound 230, 4-(2-{5-chloro-2-oxo-1,2-dihydrospiro[indole-3,4′-piperidin]-1′-yl}ethoxy)-2-fluoro-N,N-dimethylbenzamide] | 0.325 | 0.427 | 0.801 | 0.209 |
| O=C(c1ccc(OCCN2CCC3(CC2)C(=O)Nc2ccc(Cl)cc23)cc1F)N1CCOCC1 [Compound 231, 5-chloro-1′-{2-[3-fluoro-4-(morpholine-4-carbonyl)phenoxy]ethyl}-1,2-dihydrospiro[indole-3,4′-piperidin]-2-one] | 0.169 | 0.135 | 0.231 | 0.0667 |
| O=C(c1ccc(OCCN2CCC3(CC2)C(=O)Nc2ccc(Cl)cc23)cc1F)N1CCS(=O)(=O)CC1 [Compound 232, 4-[4-(2-{5-chloro-2-oxo-1,2-dihydrospiro[indole-3,4′-piperidin]-1′-yl}ethoxy)-2-fluorobenzoyl]-1λ^6-thiomorpholine-1,1-dione] | 0.137 | 0.0976 | 0.157 | 0.0416 |
| CS(=O)(=O)C1CN(C(=O)c2ccc(OCCN3CCC4(CC3)C(=O)Nc3ccc(Cl)cc34)cc2F)C1 [Compound 233, 5-chloro-1′-{2-[3-fluoro-4-(3-methanesulfonyl-azetidine-1-carbonyl)phenoxy]ethyl}-1,2-dihydrospiro[indole-3,4′-piperidin]-2-one] | 0.244 | 0.0817 | 0.134 | 0.0411 |
| O=C(c1ccc(OCCN2CCC3(CC2)C(=O)Nc2ccc(Cl)cc23)cc1F)N1CCC1 [Compound 234, 1′-{2-[4-(azetidine-1-carbonyl)-3-fluorophenoxy]ethyl}-5-chloro-1,2-dihydrospiro[indole-3,4′-piperidin]-2-one] | 0.233 | 0.272 | 0.475 | 0.146 |
| O=C(c1ccc(OCCN2CCC3(CC2)C(=O)Nc2ccc(Cl)cc23)cc1F)N1CC(O)C1 [Compound 235, 5-chloro-1′-{2-[3-fluoro-4-(3-hydroxyazetidine-1-carbonyl)phenoxy]ethyl}-1,2-dihydrospiro[indole-3,4′-piperidin]-2-one] | 0.268 | 0.27 | 0.452 | 0.132 |
| NC1CN(C(=O)c2ccc(OCCN3CCC4(CC3)C(=O)Nc3ccc(Cl)cc34)cc2F)C1 [Compound 236, 1′-{2-[4-(3-aminoazetidine-1-carbonyl)-3-fluorophenoxy]ethyl}-5-chloro-1,2-dihydrospiro[indole-3,4′-piperidin]-2-one] | 0.134 | 0.766 | 0.866 | 0.397 |
| CS(=O)(=O)NC1CN(C(=O)c2ccc(OCCN3CCC4(CC3)C(=O)Nc3ccc(Cl)cc34)cc2F)C1 [Compound 237, N-{1-[4-(2-{5-chloro-2-oxo-1,2-dihydrospiro[indole-3,4′-piperidin]-1′-yl}ethoxy)-2-fluorobenzoyl]azetidin-3-yl} methanesulfonamide] | > 3.25 | 0.132 | 0.196 | 0.0572 |
| N#Cc1ccc2c(c1)C1(CCN(CCOc3ccc(C(N)=O)c(F)c3)CC1)C(=O)N2 [Compound 238, 4-(2-{5-cyano-2-oxo-1,2-dihydrospiro[indole-3,4′-piperidin]-1′-yl}ethoxy)-2-fluorobenzamide] | 0.244 | 1.59 | > 4 | 0.763 |
| O=C(c1ccc(OCCN2CCC3(CC2)C(=O)Nc2ccc(Cl)cc23)cc1F)N1CC2(C1)CS(=O)(=O)C2 [Compound 239, 6-[4-(2-{5-chloro-2-oxo-1,2-dihydrospiro[indole-3,4′-piperidin]-1′-yl}ethoxy)-2-fluorobenzoyl]-2λ^6-thia-6-azaspiro[3.3]heptane-2,2-dione] | 0.191 | 0.04 | 0.0488 | 0.0148 |
| Cc1n[nH]cc1-c1ccc(OCCN2CCC3(CC2)C(=O)Nc2ccc(Cl)cc23)cc1 [Compound 244, 5-chloro-1′-{2-[4-(5-methyl-1H-pyrazol-4-yl)phenoxy]ethyl}-1,2-dihydrospiro[indole-3,4′-piperidin]-2-one] | 0.189 | 0.141 | 0.151 | 0.0493 |
| CNC(=O)N1CCc2cc(OCCN3CCC4(CC3)C(=O)Nc3ccc(Cl)cc34)ccc2C1 [Compound 245, 6-(2-{5-chloro-2-oxo-1,2-dihydrospiro[indole-3,4′-piperidin]-1′-yl}ethoxy)-N-methyl-1,2,3,4-tetrahydroisoquinoline-2-carboxamide] | 0.301 | 0.265 | 0.379 | 0.102 |
| Cn1c(=O)[nH]c2cc(OCCN3CCC4(CC3)C(=O)Nc3ccc(Cl)cc34)cnc21 [Compound 247, 5-chloro-1′-[2-({3-methyl-2-oxo-1H,2H,3H-imidazo[4,5-b]pyridin-6-yl}oxy)ethyl]-1,2-dihydrospiro[indole-3,4′-piperidin]-2-one] | 0.27 | 0.186 | 0.246 | 0.081 |
| O=C1Nc2ccc(Cl)cc2C12CCN(CCOc1ccc(S(=O)(=O)C3(CO)CC3)nc1)CC2 [Compound 248, 5-chloro-1′-{2-[(6-{[1-(hydroxymethyl)cyclopropyl]sulfonyl}pyridin-3-yl)oxy]ethyl}-1,2-dihydrospiro[indole-3,4′-piperidin]-2-one] | 0.219 | 0.0862 | 0.126 | 0.0379 |
| NC(=O)c1ccc(OCCN2CCC3(CC2)C(=O)Nc2ccc(Cl)cc23)cc1C(F)F [Compound 249, 4-(2-{5-chloro-2-oxo-1,2-dihydrospiro[indole-3,4′-piperidin]-1′-yl}ethoxy)-2-(difluoromethyl)benzamide] | 0.0706 | 0.0538 | 0.0738 | 0.0221 |
| N#Cc1ccc2c(c1)C1(CCN(CCOc3ccc(C(N)=O)c(C(F)F)c3)CC1)C(=O)N2 [Compound 250, 4-(2-{5-cyano-2-oxo-1,2-dihydrospiro[indole-3,4′-piperidin]-1′-yl}ethoxy)-2-(difluoromethyl)benzamide] | 0.192 | 0.445 | 0.678 | 0.194 |
| CN1C(=O)C2(CCN(CCOc3ccc(C4(S(C)(=O)=O)COC4)cc3)CC2)c2cc(C#N)ccc21 [Compound 251, 1′-{2-[4-(3-methanesulfonyloxetan-3-yl)phenoxy]ethyl}-1-methyl-2-oxo-1,2-dihydrospiro[indole-3,4′-piperidine]-5-carbonitrile] | ~0.323 | 0.903 | 1.12 | 0.24 |
| CN(C)C(=O)C1(c2ccc(OCCN3CCC4(CC3)C(=O)Nc3ccc(C#N)cc34)cc2)COC1 [Compound 254, 3-[4-(2-{5-cyano-2-oxo-1,2-dihydrospiro[indole-3,4′-piperidin]-1′-yl}ethoxy)phenyl]-N,N-dimethyloxetane-3-carboxamide] | 2.04 | 0.695 | 0.951 | 0.252 |
| CNC(=O)C1(c2ccc(OCCN3CCC4(CC3)C(=O)Nc3ccc(C#N)cc34)cc2)COC1 [Compound 255, 3-[4-(2-{5-cyano-2-oxo-1,2-dihydrospiro[indole-3,4′-piperidin]-1′-yl}ethoxy)phenyl]-N-methyloxetane-3-carboxamide] | ~2.9 | 1.38 | 2.92 | 0.575 |
| O=C(c1c(F)cc(OCCN2CCC3(CC2)C(=O)Nc2ccc(Cl)cc23)cc1F)N1CCS(=O)(=O)CC1 [Compound 259, 4-[4-(2-{5-chloro-2-oxo-1,2-dihydrospiro[indole-3,4′-piperidin]-1′-yl}ethoxy)-2,6-difluorobenzoyl]-1λ^6-thiomorpholine-1,1-dione] | 0.0925 | 0.068 | 0.0922 | 0.0255 |
| CN1C(=O)C2(CCN(CCOc3cc(F)c(C(=O)N4CCS(=O)(=O)CC4)c(F)c3)CC2)c2cc(C#N)ccc21 [Compound 260, 1′-{2-[4-(1,1-dioxo-1λ^6-thiomorpholine-4-carbonyl)-3,5-difluorophenoxy]ethyl}-1-methyl-2-oxo-1,2-dihydrospiro[indole-3,4′-piperidine]-5-carbonitrile] | 0.248 | 0.274 | 0.397 | 0.11 |

Source: patent publication US12344610B2, “APOL1 inhibitors and methods of use” (Maze Therapeutics, Inc., priority 2022, dated 2025)
